One data set addresses T1, 5HT2 receptor (Mus musculus, UniProt P35363).
T1 construct: The administration of 5-methoxy-N,N-dimethyltryptamine 5-MeO-DMT to mice typically produces a characteristic head twitch in the mice; from tissue; host or cells: living mice (in vivo, endogenous receptor)
Description: (5-MeO-DMT) head twitch test. It is filed as in vivo, mice. The note with it: ip, read-out: ED50 FOR ABOLITION OF HEAD TWITCH. Here is the method: Psychopharmacol., Vol. 3, pages 89-92, (1979). The administration of 5-methoxy-N,N-dimethyltryptamine 5-MeO-DMT to mice typically produces a characteristic head twitch in the mice. In this test, the mice are administered 5-MeO-DMT and a test compound. An absence of head twitches in the mice is considered to be predictive of the ability of the test compound to antagonize the 5HT2 receptor in vivo.

In another data set the test system is coronary vessel. The note with it: patients with stable angina; Golino et al, NEJM 1991; 324:641-648; cited from earlier work.
In another data set the test system is thrombus formation. The note with it: canine models; Bush et al., Drug Development Research, Vol. 7, 319-340 (1986); cited from earlier work.
Data set [1] relates to preference for both alcohol and cocaine. The note with it: rodent model of drug abuse; Meert et al; cited from earlier work.
The test system of the next data set is coronary vessels. The note with it: patients with stable angina, intracoronary infusion, McFadden et al, cited from earlier work.
The mark [2] stands for this setting: mice, 5-MeO-DMT induced head twitch.

Where two headings read alike, the source gives them in different places.

T1 sequence (P35363 whole entry): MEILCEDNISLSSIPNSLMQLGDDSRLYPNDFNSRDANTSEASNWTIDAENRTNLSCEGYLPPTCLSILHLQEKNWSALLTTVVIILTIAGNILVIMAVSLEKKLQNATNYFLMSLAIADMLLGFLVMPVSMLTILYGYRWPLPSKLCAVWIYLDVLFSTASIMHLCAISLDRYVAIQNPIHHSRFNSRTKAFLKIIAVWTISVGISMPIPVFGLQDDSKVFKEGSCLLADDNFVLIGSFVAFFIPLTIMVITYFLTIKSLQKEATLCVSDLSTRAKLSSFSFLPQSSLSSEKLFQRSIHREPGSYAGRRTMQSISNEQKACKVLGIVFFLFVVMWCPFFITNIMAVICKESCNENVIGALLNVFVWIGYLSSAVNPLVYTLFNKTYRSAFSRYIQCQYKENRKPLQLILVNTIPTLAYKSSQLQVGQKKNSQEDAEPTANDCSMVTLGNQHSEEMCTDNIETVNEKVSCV

A word on the ED50: it is the midpoint of the dose-response relation. Turning to `OC(c1ccccc1)C1CCN(CCc2ccccc2)CC1` (racemic) [Compound B racemic, α-phenyl-1-(2-phenylethyl)-4-piperidinemethanol], on 5HT2 receptor (setting [2]), the ED50 stood at 3.28 mg/kg.
In the case of `COc1cccc(C(O)C2CCN(CCc3ccccc3)CC2)c1OC` (racemic) [Compound C racemic, α-(2,3-dimethoxyphenyl)-1-(2-phenylethyl)-4-piperidinemethanol], on 5HT2 receptor, the ED50 came out at 2.04 mg/kg.
Turning to `OC(c1ccccc1)C1CCN(CCc2ccccc2)CC1` (single isomer, unassigned) [Compound B (+)-isomer, α-phenyl-1-(2-phenylethyl)-4-piperidinemethanol], the ED50 on 5HT2 receptor (setting [2]) came to 0.87 mg/kg.
Turning to `COc1cccc(C(O)C2CCN(CCc3ccc(F)cc3)CC2)c1OC` (single isomer, unassigned) [Invention, (+)-α-(2,3-dimethoxyphenyl)-1-[2-(4-fluorophenyl)ethyl]-4-piperidinemethanol], the ED50 at 5HT2 receptor was determined as 0.03 mg/kg.
Regarding `O=C(c1ccc(F)cc1)C1CCN(CCn2c(=O)[nH]c3ccccc3c2=O)CC1` [Ketanserin], the coronary vessel constriction entry in the data set with coronary vessel is “blocked coronary vessel constriction in patients with stable angina”. Besides, in the data set on thrombus formation, the preventing thrombus formation entry was “extremely effective in preventing thrombus formation”.
On to `Cc1nc2sccn2c(=O)c1CCN1CCC(=C(c2ccc(F)cc2)c2ccc(F)cc2)CC1` [ritanserin], for which the “preference for both alcohol and cocaine” value in data set [1] was “abolished the preference for both alcohol and cocaine”.
`NCCc1c[nH]c2ccc(O)cc12` [serotonin]: the “anginal attacks during infusions” value in the data set on coronary vessels is recorded as “experienced anginal attacks during these infusions”. Moreover, the “constriction of the coronary vessels” value with coronary vessels (all concentrations tested, NEJM 1991, 324:648-654) is recorded as “induced constriction of the coronary vessels in these patients at all concentrations tested”.

The record behind these values is patent US5874445A, “(+) -α- (2,3-dimethoxyphenyl)-1-(2-(4-fluorephenyl) ethyl)-4-piepridinemethanol” (Merrell Pharmaceutical, Inc., priority 1997, dated 1999).
